Laboratory results published in patent US20070015818A1, “Cyclic sulfone containing retroviral protease inhibitors” (G.D. Searle & Co. (now G.D. Searle, LLC), priority 1995, published 2007).

test system: HIV; assay: EC50 of Table 1 (antiviral activity, method not described); assay type: cell-based; details: Human immunodeficiency virus 1

Row | EC50 | Structure (SMILES)
1 | 295 nM | CC(C)CCN(C[C@@H](O)[C@H](Cc1ccccc1)NC(=O)C1CCCS(=O)(=O)C1)C(=O)NC(C)(C)Cn1ccnc1 (stereo partly drawn) [Example 4a]
2 | 12 nM | CC(C)(C)NC(=O)[C@@H]1C[C@@H]2CCCC[C@@H]2CN1C[C@@H](O)[C@H](Cc1ccccc1)NC(=O)C1CCCS(=O)(=O)C1 (stereo partly drawn) [Example 7]
3 | 19 nM | CC(C)CCN(C[C@@H](O)[C@H](Cc1ccccc1)NC(=O)C1CCCS(=O)(=O)C1)S(=O)(=O)c1ccccc1 (stereo partly drawn) [Example 8]
